Results: patent publication US20120302530A1, “23-HYDROXY-BETULINIC ACID DERIVATIVES, PREPARATION METHODS AND USES THEREOF” (priority 2009, published 2012)
Where two headings read alike, the source gives them in different places.

Columns and labels:
[1] = tested on: normal person PBMC; assay: Toxicity to PBMC cells (MTT, day 7); assay type: cell-based, human; settings: day 7, MTT
Protocol: (§1) (2) Toxicity of compounds zhangnan-5, zhangnan-7 and zhangnan-8 to C8166 and PBMC cells:
(§2) C8166 (human T cell line) and PBM (using lymphocyte isolation liquid to separate from normal human peripheral blood, and adhered mononuclear cell separated from PBMC) cells in exponential phase are taken. The cells are resuspended after centrifugal (1000 r•min-1, 10 min), and the concentrations are adjusted to 4×10^5/ml and 2×10^6/ml. The test samples are double diluted on the 96-hole cell culture plate. In total 6 gradients are set, each having 3 duplicate holes. In addition, positive control group and cell control group are set. Upon adding cell suspended liquid, the test samples are placed in incubator of 370C and 5% CO2 for incubation. On the seventh (7th) day, MTT method is used to determine toxicity of the samples to cells.
(§3) Inhibition ratio of cell growth (%)=(1−experimental hole OD value/control hole (OD value)×100%

[2] = tested on: HIV-1IIIB; assay: Inhibition of HIV-1IIIB induced syncytium formation in C8166 cells; assay type: cell-based; settings: for therapeutic index TI: HIV-1IIIB syncytium, C8166, TI=IC50/EC50; for EC50: HIV-1IIIB, C8166 cells, third day after infection
Excerpt: (3) The inhibition effects of compounds zhangnan-5, zhangnan-7 and zhangnan-8 to virus HIV-1IIIB inducing C8166 cell to form syncytium: (see JIANG, Haiou; WANG, Xu; L I, Rurun; CHEN, Dagang; B I, Kunlong, Experimental Research on Recipe Sanhuangsan Capsule for Resisting AIDS virus in Vitro, [J]. Shandong Journal of Traditional Chinese medicine, 2005.8 (1):21-26).
The test sample is double diluted with culture medium on the 96-hole flat culture plate. There are 8 dilutions in total. Each hole 100 ul has 2 duplicate holes. In addition, there are positive control group, cell control group and virus control group. 80 ul C8166 cell of 4×10^5/ml is added into each hole, and then 20 ul virus HIV-1IIIB supernatant is added into each hole. The final volume of each hole is 200 ul. The sample is placed in incubator of 370C, 5% CO2 for cultivation. […] Under the inverted microscope, the number of syncytium formed by virus HIV-1IIIB inducing C8166 cell is counted. […] The following formula is used to calculate the inhibition ratio of the sample to syncytium.
Inhibition ratio formed by syncytium (%)=(1−experimental hole syncytium number/control hole syncytium number)×100%

[3] = tested on: HIV-1Ada-M; assay: ELISA of HIV-1Ada-M p24 antigen expression in PBMC; assay type: cell-based; settings: for therapeutic index TI: HIV-1Ada-M p24, PBMC, TI=IC50/EC50
Excerpt: (4) Quantitative Enzyme Linked Immunoadsorbent method (EIISA) detecting inhibiting effects of compounds to virus HIV-1Ada-Mp24 expression: (see JIANG, Haiou; WANG, Xu; L I, Rurun; CHEN, Dagang; B I, Kunlong, Experimental Research on Recipe Sanhuangsan Capsule Resisting AIDS Virus in Vitro, [J], Shandong Journal of Traditional Chinese medicine, 2005.8 (1):21-26).
Multi-heads sample injector is used to conduct triple dilution to the sample on the 96-hole culture plate. There are 6 dilutions, in which each dilution has 3 duplicate holes, and each hole is 100 ul. […] On the 96-hole flat culture plate, each hole is added with 25 ul virus stock solution containing 1000˜5000 pg/well P24 antigen, which is sufficiently blended. 75 ul mononuclear cell PBMC suspension liquid is added (3×10^5 cell numbers/hole). Upon placing in incubator of 37° C., 5% CO2 to the third day, 100 ul of culture medium is added to each hole. On the 7th day, cell culture supernatant is collected for p24 antigen test. According to p24 kit description, ELISA method is used to measure the virus HIV-1 p24 antigen concentration of each sample cell culture hole supernatant. The following formula is used to calculate the inhibition ratio of sample to virus.
Inhibition ratio of sample to virus p24 antigen (%)=(1−experimental hole OD value/cell+virus control hole OD value)×100%. Reed and Mueneh method is used to calculate EC50 of the test sample, and to further calculate the therapeutic index (TI) (TI=IC50/EC50). […] The positive control SCH-C, 23-hydroxyl-betulinic acid, compounds zhangnan-5, zhangnan-7 and zhangnan-8 all reach an inhibition ratio above 50% within the tested range. The positive control SCH-C inhibits HIV-1Ada-M p24 antigen expression. […] In addition, the inhibition effect to HIV-1Ada-M has significant dose-effect relationship with its concentration.

[4] = tested on: C8166 (human T cell line); assay: Toxicity to C8166 cells (MTT, day 7); assay type: cell-based; settings: C8166, day 7, MTT
Protocol: as §1, §2, §3

[5] = when even reaching 500 mg/kg; cited from earlier work

Compound	therapeutic index TI [2]	EC50 [2]	therapeutic index TI [3]	further results
C=C(C)[C@@H]1CC[C@]2(C(=O)O)CC[C@]3(C)[C@H](CC[C@@H]4[C@@]5(C)CC[C@H](O)[C@@](C)(CO)[C@@H]5CC[C@]43C)[C@@H]12 [23-hydroxyl-betulinic acid, reference compound]	13	1.2 ± 0.23 µM	7.8	IC50 [1]: 14.9 ± 3.46 µM; EC50 ([3]; HIV-1Ada-M, PBMC, 7th day, ELISA, read-out: EC50, inhibition of p24 antigen expression): 1.9 ± 0.39 µM; IC50 ([4]; read-out: IC50 (50% inhibition concentration) to C8166 cell): 15.1 ± 3.57 µM
Cc1cn([C@H]2C[C@H](N=[N+]=[N-])[C@@H](CO)O2)c(=O)[nH]c1=O [AZT, reference compound]	2473	1.39 µM	–	IC50 ([4]; positive control, read-out: toxicity to 50% of C8166 cells): 3440 µM
CCO/N=C(\c1ccc(Br)cc1)C1CCN(C2(C)CCN(C(=O)c3c(C)cc[n+]([O-])c3C)CC2)CC1 [SCH-C, reference compound]	–	–	2583	–
C=C(C)[C@@H]1CC[C@]2(C(=O)O)CC[C@]3(C)[C@H](CC[C@@H]4[C@@]5(C)CC[C@H](O)C(C)(C)[C@@H]5CC[C@]43C)[C@@H]12 [Betulinic acid, 3β-hydroxy-1up-20(29)-ene-28-oic acid]	–	–	–	toxic reaction [5]: no obvious toxic reaction
